In ChEMBL document CHEMBL4024754, “Development of Potent, Protease-Resistant Agonists of the Parathyroid Hormone Receptor with Broad β Residue Distribution” (J Med Chem, 2017):
Numbered stars: 1 amine (or outer) side, 2 acyl side, 3 side chain; on linkers, the order of the positions; unused ones are H or OH. Square brackets hold non-standard residues; d marks the D form. Peptide text beside a SMILES is read from it. * marks the point of attachment. NH(1S,2S-2-CONH2-cPent) = NC(=O)[C@H]1CCC[C@@H]1N*; β3hW = N[C@H](CC(=O)O)Cc1c[nH]c2ccccc12; ACPC(1S,2S) = N[C@H]1CCC[C@@H]1C(=O)*; X1 = O=C([C@H]1CCC[C@@H]1N[*:1])[*:2]; X2 = O=C([C@H]1CNC[C@@H]1N[*:1])[*:2]; hArg = N=C(N)NCCCC[C@H](N)C(=O)O; β3hE = N[C@@H](CCC(=O)O)CC(=O)O; β3hF = N[C@H](CC(=O)O)Cc1ccccc1; β3hK = NCCCC[C@H](N)CC(=O)O; β3hM = CSCC[C@H](N)CC(=O)O; β3hD = NC(CC(=O)O)CC(=O)O; Aib = CC(C)(N)C(=O)O

Experiments:
[1] = target: T1, Parathyroid hormone/parathyroid hormone-related peptide receptor (Homo sapiens, UniProt Q03431); assay: Agonist activity at human PTH1 receptor expressed in human GP2.3 cells assessed as induction of cAMP after 12 to 20 mins by luciferase reporter gene assay; type: functional, cell-based; details: read-out: EC50
T1 sequence (Q03431 whole entry): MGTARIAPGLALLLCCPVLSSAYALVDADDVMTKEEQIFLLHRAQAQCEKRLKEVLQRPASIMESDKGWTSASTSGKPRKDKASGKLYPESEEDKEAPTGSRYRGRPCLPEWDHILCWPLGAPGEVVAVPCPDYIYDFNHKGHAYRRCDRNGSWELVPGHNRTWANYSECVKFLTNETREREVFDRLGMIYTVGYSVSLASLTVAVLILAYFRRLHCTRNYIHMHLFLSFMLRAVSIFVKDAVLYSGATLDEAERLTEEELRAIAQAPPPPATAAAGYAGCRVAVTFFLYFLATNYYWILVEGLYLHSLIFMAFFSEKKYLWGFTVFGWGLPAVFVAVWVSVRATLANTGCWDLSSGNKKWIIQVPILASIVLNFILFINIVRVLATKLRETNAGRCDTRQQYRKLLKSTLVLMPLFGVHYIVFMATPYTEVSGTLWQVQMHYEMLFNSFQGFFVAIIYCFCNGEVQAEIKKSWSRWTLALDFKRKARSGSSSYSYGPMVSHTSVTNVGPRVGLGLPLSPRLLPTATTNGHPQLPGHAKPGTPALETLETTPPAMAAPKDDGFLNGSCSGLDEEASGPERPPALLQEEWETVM

[2] = target: T2, Parathyroid hormone/parathyroid hormone-related peptide receptor (Homo sapiens) (UniProt Q03431); assay: Agonist activity at human PTH1 receptor expressed in human GP2.3 cells assessed as induction of cAMP after 12 to 20 mins by luciferase reporter gene assay relative to PTH(1 to 34 residues)-NH2; type: functional, cell-based
T2 sequence (whole entry): T1 sequence (Q03431 whole entry)

Structure (SMILES) | EC50 [1] [nM] | fold change (FC) [2]
CC[C@H](C)[C@H](NC(=O)[C@H](CCC(=O)O)NC(=O)[C@H](C)NC(=O)[C@@H](NC(=O)[C@H](C)N)C(C)C)C(=O)N[C@@H](CCC(N)=O)C(=O)N[C@@H](CC(C)C)C(=O)N[C@@H](CCSC)C(=O)N[C@@H](Cc1cnc[nH]1)C(=O)N[C@@H](CCC(N)=O)C(=O)N[C@@H](CCCCNC(=N)N)C(=O)N[C@@H](C)C(=O)N[C@@H](CCCCN)C(=O)N[C@@H](Cc1c[nH]c2ccccc12)C(=O)N[C@@H](CC(C)C)C(=O)N[C@@H](CC(N)=O)C(=O)N[C@@H](CO)C(=O)N[C@@H](CCSC)C(=O)N[C@@H](CCCNC(=N)N)C(=O)N[C@@H](CCCNC(=N)N)C(=O)N[C@H](C(=O)N[C@@H](CCC(=O)O)C(=O)N[C@@H](Cc1c[nH]c2ccccc12)C(=O)N[C@@H](CC(C)C)C(=O)N[C@@H](CCCNC(=N)N)C(=O)N[C@@H](CCCCN)C(=O)N[C@@H](CCCCN)C(=O)N[C@@H](CC(C)C)C(=O)N[C@@H](CCC(N)=O)C(=O)N[C@@H](CC(=O)O)C(=O)N[C@H](C(=O)N[C@@H](Cc1cnc[nH]1)C(=O)N[C@@H](CC(N)=O)C(=O)N[C@@H](Cc1ccccc1)C(N)=O)C(C)C)C(C)C (H-AVAEIQLMHQ[hArg]AKWLNSMRRVEWLRKKLQDVHNF-NH2) | 0.34 | 4.2
CC[C@H](C)[C@H](NC(=O)[C@H](CCC(=O)O)NC(=O)C(C)(C)NC(=O)[C@@H](NC(=O)[C@H]1CCC[C@@H]1N)C(C)C)C(=O)N[C@@H](CCC(N)=O)C(=O)N[C@H]1CCC[C@@H]1C(=O)N[C@@H](CCSC)C(=O)N[C@@H](Cc1cnc[nH]1)C(=O)N[C@@H](CCC(N)=O)C(=O)N[C@@H](CCCCNC(=N)N)C(=O)N[C@@H](C)C(=O)N[C@@H](CCCCN)C(=O)N[C@H]1CCC[C@@H]1C(=O)N[C@@H](CC(C)C)C(=O)N[C@@H](CC(N)=O)C(=O)N[C@@H](CO)C(=O)N[C@H]1CCC[C@@H]1C(=O)N[C@@H](CCCNC(=N)N)C(=O)N[C@@H](CCCNC(=N)N)C(=O)N[C@H](C(=O)N[C@H]1CNC[C@@H]1C(=O)N[C@@H](Cc1c[nH]c2ccccc12)C(=O)N[C@@H](CC(C)C)C(=O)N[C@@H](CCCNC(=N)N)C(=O)N[C@H]1CNC[C@@H]1C(=O)N[C@@H](CCCCN)C(=O)N[C@@H](CC(C)C)C(=O)N[C@@H](CCC(N)=O)C(=O)N[C@H]1CCC[C@@H]1C(=O)N[C@H](C(=O)N[C@@H](Cc1cnc[nH]1)C(=O)N[C@@H](CC(N)=O)C(=O)N[C@H]1CCC[C@@H]1C(N)=O)C(C)C)C(C)C ({ACPC(1S,2S)}-V[Aib]EIQ[X1]MHQ[hArg]AK[X1]LNS[X1]RRV[X2]WLR[X2]KLQ[X1]VHN-{NH(1S,2S-2-CONH2-cPent)}) | 1.8 | 22
CC[C@H](C)[C@H](NC(=O)[C@H](CCC(=O)O)NC(=O)C(C)(C)NC(=O)[C@@H](NC(=O)[C@H]1CCC[C@@H]1N)C(C)C)C(=O)N[C@@H](CCC(N)=O)C(=O)N[C@H]1CCC[C@@H]1C(=O)N[C@@H](CCSC)C(=O)N[C@@H](Cc1cnc[nH]1)C(=O)N[C@@H](CCC(N)=O)C(=O)N[C@@H](CCCCNC(=N)N)C(=O)N[C@@H](C)C(=O)N[C@@H](CCCCN)C(=O)N[C@H](CC(=O)N[C@@H](CC(C)C)C(=O)N[C@@H](CC(N)=O)C(=O)N[C@@H](CO)C(=O)N[C@@H](CCSC)CC(=O)N[C@@H](CCCNC(=N)N)C(=O)N[C@@H](CCCNC(=N)N)C(=O)N[C@H](C(=O)N[C@@H](CCC(=O)O)CC(=O)N[C@@H](Cc1c[nH]c2ccccc12)C(=O)N[C@@H](CC(C)C)C(=O)N[C@@H](CCCNC(=N)N)C(=O)N[C@@H](CCCCN)CC(=O)N[C@@H](CCCCN)C(=O)N[C@@H](CC(C)C)C(=O)N[C@@H](CCC(N)=O)C(=O)N[C@@H](CC(=O)O)CC(=O)N[C@H](C(=O)N[C@@H](Cc1cnc[nH]1)C(=O)N[C@@H](CC(N)=O)C(=O)N[C@H](CC(N)=O)Cc1ccccc1)C(C)C)C(C)C)Cc1c[nH]c2ccccc12 ({ACPC(1S,2S)}-V[Aib]EIQ[X1]MHQ[hArg]AK[β3hW]LNS[β3hM]RRV[β3hE]WLR[β3hK]KLQ[β3hD]VHN[β3hF]-NH2) | 0.83 | 10
CC[C@H](C)[C@H](NC(=O)[C@H]1CCC[C@@H]1NC(=O)[C@H](C)NC(=O)[C@H](NC(=O)[C@H](CC(C)C)NC(=O)[C@H]1CNC[C@@H]1NC(=O)[C@H](Cc1cnc[nH]1)NC(=O)[C@H](CC(C)C)NC(=O)[C@H](Cc1ccccc1)NC(=O)[C@H]1CNC[C@@H]1NC(=O)[C@H](CCCNC(=N)N)NC(=O)[C@H](CCCNC(=N)N)NC(=O)[C@H](CCCNC(=N)N)NC(=O)[C@H]1CCC[C@@H]1NC(=O)[C@H](CC(=O)O)NC(=O)[C@H](CCC(N)=O)NC(=O)[C@@H](NC(=O)[C@H]1CCC[C@@H]1NC(=O)[C@H](CCCCN)NC(=O)CNC(=O)[C@H](CCCCN)NC(=O)[C@H](CC(=O)O)NC(=O)[C@H](Cc1cnc[nH]1)NC(=O)[C@H](CC(C)C)NC(=O)[C@H](CC(C)C)NC(=O)[C@H](CCC(N)=O)NC(=O)[C@H](Cc1cnc[nH]1)NC(=O)[C@H](CCC(=O)O)NC(=O)[C@H](CO)NC(=O)[C@@H](NC(=O)[C@H](C)N)C(C)C)[C@@H](C)CC)[C@@H](C)CC)C(=O)N[C@@H](Cc1cnc[nH]1)C(=O)N[C@H](C(=O)N[C@H]1CCC[C@@H]1C(N)=O)[C@@H](C)O |  | 9.4
CC[C@H](C)[C@H](NC(=O)[C@H]1CCC[C@@H]1NC(=O)[C@H](CCCCN)NC(=O)CNC(=O)[C@H](CCCCN)NC(=O)[C@H](CC(=O)O)NC(=O)[C@H](Cc1cnc[nH]1)NC(=O)[C@H](CC(C)C)NC(=O)[C@H](CC(C)C)NC(=O)[C@H](CCC(N)=O)NC(=O)[C@H](Cc1cnc[nH]1)NC(=O)[C@H](CCC(=O)O)NC(=O)[C@H](CO)NC(=O)[C@@H](NC(=O)[C@H](C)N)C(C)C)C(=O)N[C@@H](CCC(N)=O)C(=O)N[C@@H](CC(=O)O)C(=O)N[C@H]1CCC[C@@H]1C(=O)N[C@@H](CCCNC(=N)N)C(=O)N[C@@H](CCCNC(=N)N)C(=O)N[C@@H](CCCNC(=N)N)C(=O)N[C@H]1CNC[C@@H]1C(=O)N[C@@H](CC(C)C)C(=O)N[C@@H](CC(C)C)C(=O)N[C@@H](CCC(=O)O)C(=O)N[C@H]1CNC[C@@H]1C(=O)N[C@@H](CC(C)C)C(=O)N[C@@H](CC(C)C)C(=O)NC(C)(C)C(=O)N[C@H]1CCC[C@@H]1C(=O)N[C@@H](CC(C)C)C(=O)N[C@@H](Cc1cnc[nH]1)C(=O)N[C@H](C(=O)N[C@H]1CCC[C@@H]1C(N)=O)[C@@H](C)O (H-AVSEHQLLHDKGK[X1]IQD[X1]RRR[X2]LLE[X2]LL[Aib][X1]LHT-{NH(1S,2S-2-CONH2-cPent)}) |  | 2.6
CC[C@H](C)[C@H](NC(=O)C[C@H](CO)NC(=O)[C@H](CCCCN)NC(=O)CNC(=O)[C@H](CCCCN)NC(=O)[C@H](CC(=O)O)NC(=O)[C@H](Cc1cnc[nH]1)NC(=O)[C@H](CC(C)C)NC(=O)[C@H](CC(C)C)NC(=O)[C@H](CCC(N)=O)NC(=O)[C@H](Cc1cnc[nH]1)NC(=O)[C@H](CCC(=O)O)NC(=O)[C@H](CO)NC(=O)[C@@H](NC(=O)[C@H](C)N)C(C)C)C(=O)N[C@@H](CCC(N)=O)C(=O)N[C@@H](CC(=O)O)C(=O)N[C@H](CC(=O)N[C@@H](CCCNC(=N)N)C(=O)N[C@@H](CCCNC(=N)N)C(=O)N[C@@H](CCCNC(=N)N)C(=O)N[C@@H](CCC(=O)O)CC(=O)N[C@@H](CC(C)C)C(=O)N[C@@H](CC(C)C)C(=O)N[C@@H](CCC(=O)O)C(=O)N[C@@H](CCCCN)CC(=O)N[C@@H](CC(C)C)C(=O)N[C@@H](CC(C)C)C(=O)NC(C)(C)C(=O)N[C@@H](CCCCN)CC(=O)N[C@@H](CC(C)C)C(=O)N[C@@H](Cc1cnc[nH]1)C(=O)N[C@H](C(=O)N[C@@H](C)CC(N)=O)[C@@H](C)O)CC(C)C |  | 60.4
CSCC[C@H](NC(=O)[C@H]1CCC[C@@H]1NC(=O)[C@H](CCC(N)=O)NC(=O)[C@H]1CCC[C@@H]1NC(=O)[C@H](CCC(=O)O)NC(=O)[C@H](CO)NC(=O)[C@@H](NC(=O)[C@H]1CCC[C@@H]1N)C(C)C)C(=O)N[C@@H](Cc1cnc[nH]1)C(=O)N[C@@H](CC(N)=O)C(=O)N[C@@H](CC(C)C)C(=O)NCC(=O)N[C@@H](CCCCN)C(=O)N[C@H]1CCC[C@@H]1C(=O)N[C@@H](CC(C)C)C(=O)N[C@@H](CC(N)=O)C(=O)N[C@@H](CO)C(=O)N[C@H]1CCC[C@@H]1C(=O)N[C@@H](CCC(=O)O)C(=O)N[C@@H](CCCNC(=N)N)C(=O)N[C@H](C(=O)N[C@H]1CNC[C@@H]1C(=O)N[C@@H](Cc1c[nH]c2ccccc12)C(=O)N[C@@H](CC(C)C)C(=O)N[C@@H](CCCNC(=N)N)C(=O)N[C@H]1CNC[C@@H]1C(=O)N[C@@H](CCCCN)C(=O)N[C@@H](CC(C)C)C(=O)N[C@@H](CCC(N)=O)C(=O)N[C@H]1CCC[C@@H]1C(=O)N[C@H](C(=O)N[C@@H](Cc1cnc[nH]1)C(=O)N[C@@H](CC(N)=O)C(=O)N[C@H]1CCC[C@@H]1C(N)=O)C(C)C)C(C)C ({ACPC(1S,2S)}-VSE[X1]Q[X1]MHNLGK[X1]LNS[X1]ERV[X2]WLR[X2]KLQ[X1]VHN-{NH(1S,2S-2-CONH2-cPent)}) |  | 234
